Results on nine compounds are retold here after patent US11993801B2, “Base-modified nucleotides as substrates for TdT-based enzymatic nucleic acid synthesis” (Illumina Singapore Pte. Ltd., priority 2020, dated 2024).

In assay [1] the target is T1, TdT (Bos taurus, UniProt P06526).
T1 construct: purchased New England Biolab (Ipswich, MA)
The assay can be described thus: TdT incorporation assay (extension of 21-nt oligonucleotide, denaturing TBE-Urea gel). The format is biochemical. The settings on record: for yield of 22-nt oligo (+1 product) / yield of 23-nt oligo (+2 product) / yield of 24-nt oligo (+3 product): 40 μM nucleotide. The protocol:
DNA oligonucleotide sequence used for primer extension assays is: ATTCAGGACGAGCCTCAGACC (SEQ ID NO: 1)
[…] The solution was then heated at 95° C. for 5 minutes to inactivate TdT. UV cleavage of the photolabile group was done using an 8 W UV lamp at 365 nm for 10 minutes.
(§1) Initrogen (Carlsbad, California) Novex™ TBE-Urea gel (15%) was pre-washed with 1×TBE running buffer to remove excess urea. Oligonucleotide samples (5 μL) were mixed with Novex™ TBE-Urea Sample Buffer (2×, 5 μL). The mixture was then heated at 95° C. for 5 minutes and loaded to the gel. Gels were run in a 1×TBE running buffer at up to 240 V until the bromophenol blue reached the bottom of the gel. The gel was then visualized using Gel Doc XR+ and analyzed using the gel analysis tool in the Bio-Rad (Hercules, California) Image Lab software.

The subject of assay [2] is TdT. To be noted: cited from earlier work.
Assay [3] has as its target T1, TdT. In words: 2 cycle incorporation and deprotection. Type of assay: biochemical. To be noted: nucleotide 20 μM, 7 minutes at 37° C., 8 W UV lamp at 365 nm for 10 minutes per cycle (FIG. 5). Here is the method: A 6-fluorescein-tagged 21-nt oligonucleotide (200 nM), 1× TdT buffer (NEB), TdT (2 U μL^−1) CoCl2 (NEB, 0.25 mM) and nucleotide (20 μM) in 500 μL solution was incubated at 37° C. for 7 minutes and quenched with EDTA (50 μL, 500 mM). The solution was concentrated using MilliporeSigma (Burlington, Massachusetts) Amicon Ultra-0.5 mL Centrifugal Filters (3 kDa) to a final volume of 30 μL. Sodium Acetate solution (10 μL, 3M, pH 5.0) was added to the concentrated solution and further purified using Zymo (Irvine, California) DNA Clean & Concentrator. UV cleavage of the photolabile group was done using an 8 W UV lamp at 365 nm for 10 minutes. The steps were then repeated to give the second incorporation.
as §1

Setting [4] is: 200 nM 21-nt oligonucleotide, 1 U μL^−1 TdT, 15 minutes.

T1 sequence (P06526 whole entry): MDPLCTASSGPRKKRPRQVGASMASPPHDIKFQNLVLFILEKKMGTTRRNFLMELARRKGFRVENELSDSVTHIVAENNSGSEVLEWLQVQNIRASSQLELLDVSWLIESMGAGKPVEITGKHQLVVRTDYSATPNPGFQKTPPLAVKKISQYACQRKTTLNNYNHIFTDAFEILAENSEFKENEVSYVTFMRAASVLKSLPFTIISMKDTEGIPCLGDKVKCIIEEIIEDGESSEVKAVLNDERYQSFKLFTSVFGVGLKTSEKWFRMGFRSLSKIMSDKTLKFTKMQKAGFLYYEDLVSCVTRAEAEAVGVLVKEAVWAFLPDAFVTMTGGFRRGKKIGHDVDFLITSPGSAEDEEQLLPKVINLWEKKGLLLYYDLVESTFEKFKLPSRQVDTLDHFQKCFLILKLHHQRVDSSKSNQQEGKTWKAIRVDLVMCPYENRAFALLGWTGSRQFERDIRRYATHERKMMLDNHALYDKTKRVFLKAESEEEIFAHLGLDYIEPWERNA

Take `NCC#Cc1cn([C@H]2C[C@H](O)[C@@H](COP(=O)(O)OP(=O)(O)OP(=O)(O)O)O2)c(=O)[nH]c1=O` [propargylamino-dUTP, reference compound]: the “incorporation by TdT compared to that of dTTP” value at TdT [1] (Lanes 6-7, FIG. 2A) was “significantly slower”.
As for N3-PEG8-dUTP [Compound 2], at TdT [1] (setting [4]), the “yield of 22-nt oligo (+1 product)” value worked out at 88%, the “yield of 23-nt oligo (+2 product)” value was 12% and the “yield of 24-nt oligo (+3 product)” value was “not observed”. In addition, at TdT [1] (30 minutes of incubation), the “yield of 23-nt oligo (+2 product)” value is reported as 22% and the “yield of 24-nt oligo (+3 product)” value is “not observed”.
As to `CCCCSCCc1cn([C@H]2C[C@H](O)[C@@H](COP(=O)(O)OP(=O)(O)OP(=O)(O)O)O2)c2ncnc(N)c12` [7-[2-(butylsulfanyl)ethyl]-2′-deoxy-7-deazaadenosine 5′-O-triphosphate], in the assay with TdT [2], the “number of incorporation events by TdT” value is reported as “only a single incorporation event”.
As for `Cc1cn([C@H]2C[C@H](OCN=[N+]=[N-])[C@@H](COP(=O)(O)OP(=O)(O)OP(=O)(O)O)O2)c(=O)[nH]c1=O` [3′-O-azidomethyl-dTTP, reference compound], on TdT [1] (nucleotide 1 μM to 32 μM, 10 minutes of incubation at 37° C. (FIG. 4)), the “incorporation by TdT” value is on record as “unable to incorporate”.
As for N3-PEG24-dUTP [Compound 4], at TdT [1] (setting [4]), the “yield of 22-nt oligo (+1 product)” value is given as “quantitative”. On TdT [1] (30 minutes of incubation), the “yield of 22-nt oligo (+1 product)” value is on record as 98%, the “yield of 23-nt oligo (+2 product)” value is given as 2% and the “yield of 24-nt oligo (+3 product)” value was “not observed”.
In the case of N3-PEG12-dUTP [Compound 3], the “yield of 22-nt oligo (+1 product)” value at TdT [1] (setting [4]) is given as 94%. On TdT [1] (30 minutes of incubation), the “yield of 23-nt oligo (+2 product)” value was found to be 13% and the “yield of 24-nt oligo (+3 product)” value is “not observed”.
In the case of N3-PEG23-nitrobenzyl-dUTP [Compound 5], the “product after 2 cycles of incorporation and photocleavage of PEG moiety” value at TdT [3] is given as “the desired 23-nt oligo”. Besides, the “incorporation by TdT” value at TdT [1] (nucleotide 20 μM (Lane 10, FIG. 4)) is “could be incorporated”. Besides, on TdT [1] (optimized conditions, incorporation time varied from 5 to 9 minutes (FIG. 3)), the “reaction time in which quantitative incorporation was achieved” value is ≤ 7 min.
In the case of `Nc1ncnc2c1c(CCSc1ccccc1)cn2[C@H]1C[C@H](O)[C@@H](COP(=O)(O)OP(=O)(O)OP(=O)(O)O)O1` [7-[2-(phenylsulfanyl)ethyl]-2′-deoxy-7-deazaadenosine 5′-O-triphosphate], the “number of incorporation events by TdT” value in the assay with TdT [2] was “only a single incorporation event”.
Take N3-PEG4-dUTP [Compound 1]: on TdT [1] (setting [4]), the “yield of 22-nt oligo (+1 product)” value came out at 55%, the “yield of 23-nt oligo (+2 product)” value is given as 41% and the “yield of 24-nt oligo (+3 product)” value is listed as 4%. Besides, on TdT [1] (30 minutes of incubation), the “yield of 22-nt oligo (+1 product)” value was found to be 35%, the “yield of 23-nt oligo (+2 product)” value was 56% and the “yield of 24-nt oligo (+3 product)” value was 9%.
